The source of these data is patent US20030147936A1, “Prostatic hormonal implants treatment of prostate cancer” (priority 2002, published 2003).

The subject of experiment [1] is recurrent poor prognostic prostate cancer. Here is the method:
Since this hormonal treatment was rendered at recurrence after radiation therapy, it is termed as secondary hormonal treatment.
Later it was reduced to 1 mg per day.

Experiment [2] has as its system recurrent prostate cancer. Put plainly: Serum acid phosphatase of the same patient on oral DES. The format is in vivo, human.
Experiment [3] has as its system hormone-refractory prostate cancer. Conditions: in vivo; cited from earlier work.
Experiment [4] concerns prostate with cancer, prostatic volume greater than 50 cc. The following applies: before interstitial radioactive seed implant; cited from earlier work.
The next experiment relates to rat breast tumor. Kind of experiment: Implantation of iodoestradiol adsorbed sponges to rat breast tumor. The format is in vivo. Conditions: sponges implanted to rat breast tumor; unpublished data. An excerpt:
In U.S. Pat. No. 4,321,208 (31; Sahadevan V: Preparation of directly iodinated steroid hormones and related compounds, U.S. Pat. No. 4,321,208; 1982) this inventor has described the methods for preparation of iodinated steroid hormones including the estradiol as early as in 1976, the time of filing the patent application.

For another experiment, the target named is estrogen receptor sites (Homo sapiens, UniProt P03372). The following applies: cited from earlier work.
estrogen receptor sites, sequence (P03372 whole entry): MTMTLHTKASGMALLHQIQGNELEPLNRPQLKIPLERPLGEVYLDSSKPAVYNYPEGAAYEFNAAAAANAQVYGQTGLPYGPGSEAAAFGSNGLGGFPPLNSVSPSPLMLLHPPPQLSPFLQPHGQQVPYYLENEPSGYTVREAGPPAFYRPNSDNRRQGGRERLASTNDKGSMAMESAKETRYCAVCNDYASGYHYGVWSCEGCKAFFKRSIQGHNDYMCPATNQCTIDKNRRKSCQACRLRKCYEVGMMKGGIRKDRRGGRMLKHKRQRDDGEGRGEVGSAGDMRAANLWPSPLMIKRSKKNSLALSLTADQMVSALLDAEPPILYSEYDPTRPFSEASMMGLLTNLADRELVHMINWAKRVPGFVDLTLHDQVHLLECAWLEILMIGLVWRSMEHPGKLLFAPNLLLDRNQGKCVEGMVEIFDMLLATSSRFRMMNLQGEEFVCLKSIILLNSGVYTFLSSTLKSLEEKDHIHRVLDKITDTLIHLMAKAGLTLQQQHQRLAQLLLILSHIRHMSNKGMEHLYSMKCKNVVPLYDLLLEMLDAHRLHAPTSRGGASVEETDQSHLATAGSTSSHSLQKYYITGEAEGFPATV
A further experiment deals with estrogen antiserum. The following applies: cited from earlier work.
The mark [5] stands for this setting: DES 1 mg three times per day by mouth, four years of follow-ups.
[6] abbreviates: June 10, 1993, pretreatment value, before DES was started, table dose 3 mg 3× daily.
Setting [7] is: September 15, 1993, DES 3 mg 3× daily (table).

Where two headings read alike, the source gives them in different places.

Regarding `CC/C(=C(/CC)c1ccc(O)cc1)c1ccc(O)cc1` [DES, diethylstilbestrol], the “PSA reduced to” value is on record as “less than 1 ng per ml” in experiment [1] (1 mg DES three times a day, patients with serum PSA exceeding over 300 ng per ml) and 0.1 ng per ml in experiment [1] (DES oral dose of 1 mg daily, 363 ng per ml before treatment). For the same compound, the PSA in experiment [1] (August 4, 1996, DES 1 mg daily) was more than 0.1 ng/mL; in experiment [1] (August 5, 1997, DES 1 mg daily), more than 0.1 ng/mL; in experiment [1] (setting [6]), 363.0 ng/mL; in experiment [1] (June 13, 1994, DES 3 mg 3× daily (table)), more than 0.1 ng/mL; in experiment [1] (May 3, 1995, DES 3 mg 3× daily (table)), more than 0.1 ng/mL; in experiment [1] (September 7, 1993, DES 3 mg 3× daily (table)), 38.4 ng/mL. For the same compound, the PSA in experiment [1] (setting [7]) is 4.5 ng/mL; in experiment [1] (September 26, 1994, DES 3 mg 3× daily (table)), more than 0.1 ng/mL. Besides, the “serum PSA nadir value during treatment with DES” value in experiment [1] (setting [5]) is reported as 0.1 ng per ml. Further, in experiment [1] (continued DES alone, 1 mg three times a day, later 1 mg per day, maintained for four years, pretreatment 363 ng per ml), the “PSA value, maintained at low nadir” value was “less than 0.1 ng”. In addition, the “decrease of serum PSA (FIG. 1)” value in experiment [1] (from pretreatment 363 ng per ml, rapidly) is given as “normal level”. Besides, in experiment [2] (setting [5]), the “acid phosphatase nadir value during treatment with DES” value amounted to 0.3 international unit. Further, the figures for the “Acid Phosphatase” value in experiment [2] (setting [6]) and in experiment [2] (setting [7]) were 48.0 iu and 0.3 iu, respectively. In addition, the “decrease of serum acid phosphatase (FIG. 3)” value in experiment [2] (from pretreatment 48 international units per ml, rapidly) was “normal level”. Besides, in experiment [2] (three months after DES 1 mg three times a day, pretreatment 48.0), the “serum acid phosphatase level” value is on record as < 0.3 international units per ml. In addition, the “effectiveness in hormone-refractory prostate cancer” value in experiment [3] was “effective”.

In the case of LHRH, in experiment [4], the “reduction of the initial prostatic volume” value is on record as “about 40 per cent”.

For iodoestradiol, the tumor regression entry in the experiment with rat breast tumor was “excellent tumor regression”. For the same compound, on estrogen receptor sites, the “binding to estrogen receptor sites” value is on record as “binds”. Also, the “binding to estrogen antiserum” value in the experiment on estrogen antiserum was “binds”.
